Laboratory results as given in PMC11117207, “Discovery of Antimicrobial Agents Based on Structural and Functional Study of the Klebsiella pneumoniae MazEF Toxin–Antitoxin System” (Antibiotics, 2024).

The substances below were run on K. pneumoniae MazEF complex (assay: In vitro assay of MazEF complex disruption by peptides (RNase Alert fluorescence assay)). Conditions: 20 μM peptide, 4 μM MazEF complex; 20 mM Tris pH 8.0, 200 mM NaCl; 30 min at 37 °C; RFU of 4 μM MazF = 100%, of 4 μM MazEF ~0%; three independent experiments.
Assay type: biochemical, Klebsiella pneumoniae
Source text: To validate the ribonuclease activity of MazF toxin, an RNase Alert Kit (IDT, Coralville, IA, USA) was used. The principle is as follows. In the normal state, a fluorophore is covalently attached to one end of a synthetic RNA strand and is quenched by a quencher group at the other end of the RNA strand. However, the synthetic RNA is digested and the quencher is released when the ribonuclease interacts with substrates. Then, the released fluorophore emits fluorescence at 520 nm upon excitation at 490 nm. The resulting relative fluorescence units (RFU) were detected using a SPECTRAmax GEMINI XS spectrofluorometer (Molecular Devices, San Jose, CA, USA). All experiments were performed in triplicate.
In addition to the disruption assay using small molecules, 10 short peptides that mimic the binding region between MazE and MazF were designed based on the tertiary crystal structure of the MazEF complex and purchased from ANYGEN (http://www.anygen.com, accessed on 21 April 2024) (Table 1). Among the peptides tested, six were designed to mimic the region on MazE where it binds to MazF, while the remaining four were designed to mimic the region on MazF where it binds to MazE. This design was chosen to investigate the interactions between MazE and MazF and their respective binding regions. The main principle and process were consistent with those of complex disruption by small molecules, which has been mentioned above. The concentration of the MazEF complex was fixed at 4 μM, and the concentration of competing peptides was 20 μM. Furthermore, all of the proteins and peptides used in this assay were prepared in 20 mM Tris, pH 8.0, and 200 mM NaCl. The MazEF complex was incubated with the peptides for 30 min at 37 °C before fluorescence measurement.
With “DSQGKE [Peptide A, MazE-mimicking peptide DSQGKE (69–74)]” the “disruption of the MazEF complex (RNase activity)” value (“disruption of the MazEF complex” for short) was “approximately 65%”.
With “EYLCDSQGKEML [Peptide F, MazE-mimicking peptide […]; (65–76)]” the “disruption of the MazEF complex” value was 80−83%.
In the case of “YLCDSQGKEML [Peptide E, MazE-mimicking peptide […]; (66–76)]”, the “disruption of the MazEF complex” value is reported as 80−83%.

Same assay, conditions: 20 μM peptide, 4 μM MazEF complex; 30 min at 37 °C
For “EYLCDSQGKE [Peptide C, MazE-mimicking peptide […]; (65–74)]”, the “RNase activity compared with the related peptide (in words)” value was “did not exhibit significant differences from Peptide A”.
“KSLD [Peptide G, MazF-mimicking peptide KSLD (79–82)]” was tested, and the “RNase activity compared with the related peptide (in words)” value was “no significant difference”.
With “KSLDWKAR [Peptide I, MazF-mimicking peptide KSLDWKAR (79–86)]” the “RNase activity compared with the related peptide (in words)” value was “dramatic increase in RNase activity”.
With “QVKSLD [Peptide H, MazF-mimicking peptide QVKSLD (77–82)]” the “RNase activity compared with the related peptide (in words)” value was “no significant difference”.
For “QVKSLDWKAR [Peptide J, MazF-mimicking peptide […]; (77–86)]”, the “RNase activity compared with the related peptide (in words)” value was “dramatic increase in RNase activity”.
“YLCDSQGKE [Peptide B, MazE-mimicking peptide … (66–74)]” was tested, and the “RNase activity compared with the related peptide (in words)” value was “did not exhibit significant differences from Peptide A”.
